{
  "source": "patent US20220202739A1",
  "about": "“ENDOCANNABINOID MIMETIC AND ANTI-INFLAMMATORY COMPOUND CONTAINING COMPOSITIONS, METHODS OF PREPARATION AND USES THEREOF” (priority 2019, published 2022)",
  "format_in_all_cases": "cell-based, human",
  "details_in_all_cases": "pooled keratinocytes, 20 ppm, 24 hr",
  "key": {"FLG": {"test_system": "FLG", "experiment": "Gene expression custom microarray, pooled keratinocyte line (Example 3): FLG", "procedure": "(§1) Cell cultures: Received and began culture of pooled keratinocyte line from Promocell (C-12006; Lot #448Z026). Cells were seeded into a 75 cm2 flask and 2 6 well dishes for expansion and exposure per manufacturer's protocol using Keratinocyte Growth Medium (C2011B), Keratinocyte Supplement Mix (C39016) and CaCl (C34005). 2 ml of prepared solution were added to each of the 6 wells and 7 ml was added to the 75 cm2 flask.\n(§2) Experimental phase: When the appropriate quantity of cells were grown, they were detached as described above, but at the final step were seeded into each well of one or more 6 well dishes. Each well received 2 ml of the cells suspended in suspension so they were seeded equally. The dishes were returned to the incubator until 85-95% confluency is reached.\n(§3) It was at this stage that all wells were rinsed in PBS after aspirating the growth media. The compound(s) to be tested were previously mixed into a suitable solvent (e.g., DMSO or ethanol) that can be diluted to the desired concentration of test compound (10 μl) in the culture wells without exceeding maximum solvent concentrations and adversely effecting cell viability, and mixed with Basal Keratinocyte Media. NOTE: Standard maximum levels of solvent are 0.1% for DMSO and 0.5% for ETOH. The concentration for each tested compound/natural extract is generally listed in the left-hand column of Table 4. For certain compositions (e.g., compositions 15 and 16), other concentrations were used and are noted in the body of Table 4.\n(§4) Every 2 wells on the 6 well plate served as a biological replicate for the purposes of RNA isolation and genetic expression evaluations making each 6 well dish an n=3 for the test compound contained in the media. […]\n(§5) At the end of the 24 hr time period, the plates were removed from the incubator, the test media aspirated, and the cells rinsed with PBS. […] Allow 1 minute for saturation of the membrane and then centrifuge for 2 minutes to complete the RNA elution. • Quantify the quantity of RNA and store at −20 C° until use (no more than 1 month) […]"}, "CERS3": {"test_system": "CERS3", "experiment": "Gene expression custom microarray, pooled keratinocyte line (Example 3): CERS3", "procedure": "as §1, §2, §3, §4, §5"}, "KLF4": {"test_system": "KLF4", "experiment": "Gene expression custom microarray, pooled keratinocyte line (Example 3): KLF4", "procedure": "as §1, §2, §3, §4, §5"}},
  "data": [
    {"smiles": "C=C(C)[C@@H]1CCC(C)=C[C@H]1c1c(O)cc(CCCCC)cc1O", "note": "[CBD, cannabidiol, reference compound]", "values": [
      {"measurement": "↑FLG gene expression, fold increase or decrease vs untreated cells", "setting": "FLG", "result": 1.1, "unit": "fold"},
      {"measurement": "↑CERS3 gene expression, fold increase or decrease vs untreated cells", "setting": "CERS3", "result": 1.7, "unit": "fold"},
      {"measurement": "↑KLF4 gene expression, fold increase or decrease vs untreated cells", "setting": "KLF4", "result": 3.5, "unit": "fold"}
    ]},
    {"smiles": "CCCCCCCCCCCCCCCC(=O)NCCO", "note": "[N-palmitoylethanolamide]", "values": [
      {"measurement": "↑FLG gene expression, fold increase or decrease vs untreated cells", "setting": "FLG", "result": 28.6, "unit": "fold"},
      {"measurement": "↑CERS3 gene expression, fold increase or decrease vs untreated cells", "setting": "CERS3", "result": 2, "unit": "fold"},
      {"measurement": "↑KLF4 gene expression, fold increase or decrease vs untreated cells", "setting": "KLF4", "result": 1.7, "unit": "fold"}
    ]},
    {"smiles": "CC(C)[C@]12O[C@H]1[C@@H]1O[C@]13[C@]1(O[C@H]1C[C@H]1C4=C(CC[C@@]13C)C(=O)OC4)[C@@H]2O", "note": "[Triptolide]", "values": [
      {"measurement": "↑FLG gene expression, fold increase or decrease vs untreated cells", "setting": "FLG", "result": 14.4, "unit": "fold"},
      {"measurement": "↑CERS3 gene expression, fold increase or decrease vs untreated cells", "setting": "CERS3", "result": "−1.5", "unit": "fold"},
      {"measurement": "↑KLF4 gene expression, fold increase or decrease vs untreated cells", "setting": "KLF4", "result": 1.5, "unit": "fold"}
    ]}
  ]
}
